Test results reported in PMC7217877, “N-AS-triggered SPMs are direct regulators of microglia in a model of Alzheimer’s disease” (Nature Communications, 2020).
Values joined by “and” are separate entries in the source; they are usually repeats but may differ in a detail not shown here. Equal values may be shown once.

Assays:
[1] = test system: APP/PS1 mice; assay: thioflavin S staining of Aβ plaques in cortex and hippocampus (Fig 6a); assay type: in vivo, mouse; details: APP/PS1 + N-AS, individual values
Protocol: Thioflavin S (Sigma-Aldrich) staining was carried out according to previously described procedures. We used 6E10 (mouse, 1:100, Signet, SIG39300), anti-20G10 (mouse, 1:1000, provided by D. R. Howlett, GlaxoSmithKline, Harlow, Essex, UK) for Aβ42, anti-G30 (rabbit, 1:1000, provided by D. R. Howlett) for Aβ40, SMA (mouse, 1:400, Sigma-Aldrich, A2547), AT8 (mouse, 1:500, Thermo Fisher Scientific, MN1020), Caspase-3 (mouse, 1:200, Novus Biologicals, NB100-56708), ac-S565 (rabbit, 1:100), COX2 (mouse, 1:250, Thermo Fisher Scientific, 35-8200), Iba1 (rabbit, 1:500, Wako, 019-19941 and goat, Abcam, ab5076), NeuN (mouse, 1:500, Millipore, MAB177), GFAP (rabbit, 1:500, Dako, N1506 and chicken, 1:500, Abcam, ab4674), and Lamp1 (mouse, 1:200, Abcam, ab24170). The sections were analyzed with a laser-scanning confocal microscope (FV3000; Olympus) or with a BX51 microscope (Olympus). MetaMorph software (Molecular Devices) was used to quantification. Three-dimensional reconstruction of microglia was recorded and analyzed using IMARIS software (Bitplane)[11]. For the analysis of age-dependent microglial COX2^+ CX3CR1^+ cells in WT and APP/PS1 mice, COX2 (rabbit, 1:100, Abcam, ab15191) and CX3CR1 (mouse, 1:100, BioLegend, 149008) antibody were used and the images were acquired on Alexa 488 and APC Channel with performed using Operetta CLS and Analysis Software 4.5 (Perkin-Elmer). […]

[2] = test system: APP/PS1 mice; assay: fear conditioning (Supplementary Fig 7e); assay type: in vivo, mouse; details: N-AS vs vehicle APP/PS1
Protocol: Transgenic mouse lines over-expressing the hAPP695swe (APP) and presenilin-1M146V (PS1) mutations were originated from GlaxoSmithKline (Harlow, UK)[32] and maintained as described previously. We purchased 5×FAD mice from Jackson Labs (Stock number. 34840-JAX). Because APP/PS1 and 5xFAD mice show sex differences in disease progression, we used only male mice. To examine possible therapeutic effect of N-AS and aspirin in APP/PS1 mice, the N-AS (30 mg kg^−1, Sigma-Aldrich, 01912) was injected daily s.c. for 8 weeks to 7-months-old APP/PS1 mice until the age of 9 months, and aspirin (2 mg kg^−1, Sigma-Aldrich, A5376)[33] was administrated orally to 7-months-old APP/PS1 mice for 8 weeks. […] Block randomization method was used to allocate the animals to experimental groups. To eliminate the bias, we were blinded in experimental progress such as data collection and data analysis. Mice were housed at temperature of 22 °C and a 12 h day/12 h night cycle with free access to tap water and food pellets. All protocols were approved by the Kyungpook National University Institutional Animal Care and Use Committee. […] Freezing was analyzed for 5 min. […] Overall activity in the box was measured, and the amount of time and distance traveled in the center arena was noted. […] The total number of transitions, latency to first enter the light chamber, distance traveled, and time spent in each chamber were recorded.

[3] = target: T1, CYP 1A2 (Homo sapiens, UniProt P05177); assay: cytochrome P450 inhibition in human liver microsomes; assay type: in vitro ADME
T1 construct: from tissue; host or cells: human liver microsomes
T1 sequence (P05177 whole entry): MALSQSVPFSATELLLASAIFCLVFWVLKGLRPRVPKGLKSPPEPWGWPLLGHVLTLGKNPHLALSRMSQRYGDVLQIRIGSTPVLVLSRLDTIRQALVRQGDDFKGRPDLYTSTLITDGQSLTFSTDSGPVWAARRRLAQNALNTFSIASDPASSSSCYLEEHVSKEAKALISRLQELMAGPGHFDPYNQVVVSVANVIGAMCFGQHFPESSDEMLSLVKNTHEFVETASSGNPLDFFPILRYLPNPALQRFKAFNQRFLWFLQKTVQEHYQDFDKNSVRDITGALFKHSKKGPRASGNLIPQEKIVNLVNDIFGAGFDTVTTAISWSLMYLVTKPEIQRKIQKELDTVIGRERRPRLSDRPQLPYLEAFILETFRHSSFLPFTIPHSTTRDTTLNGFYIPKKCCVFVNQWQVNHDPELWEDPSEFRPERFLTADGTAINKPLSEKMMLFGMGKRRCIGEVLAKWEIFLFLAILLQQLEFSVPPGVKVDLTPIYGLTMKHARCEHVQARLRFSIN
Protocol: A 10 μl aliquot of this solution was then diluted using 90 μl of 100 mM potassium phosphate buffer (pH 7.4). Probe substrate cocktail solutions for seven major cytochrome P450 isozymes (phenacetin (100 μM for 1A2), bupropion (50 μM for 2B6), diclofenac (20 μM for 2C9), mephenytoin (100 μM for 2C19), dextromethorphan (5 μM for 2D6), chlorzoxazone (50 μM for 2E1), and midazolam (5 μM for 3A4)) were prepared with phosphate buffer. […] Reactions were stopped at 15 min by the addition of 200 μl cold acetonitrile (containing propranolol as internal standard at 20 ng ml^−1) and centrifuged at 17,968×g for 10 min. A 2 μl aliquot of the supernatant was injected into the LC-MS/MS system. The ratio of peak area of test compound /internal standard was used to determine the % metabolic activity of probe substrate according to the concentrations of N-AS added.

CCCCCCCCCCCCC/C=C/[C@@H](O)[C@H](CO)NC(C)=O [N-AS, N-((2S,3R,E)-1,3-Dihydroxyoctadec-4-en-2-yl)acetamide]
area occupied by Aβ plaques (thioflavin S) ([1]; Cortex): 0.5468 and 0.5931 and 0.5106 and 0.2602 and 0.3052 and 0.2223 and 0.2101 and 0.1051
area occupied by Aβ plaques (thioflavin S) ([1]; Hippocampus): 0.3692 and 0.3742 and 0.26 and 0.2921 and 0.4067 and 0.08652 and 0.2333 and 0.1243
memory formation, fear conditioning [2]: largely protected from this defect
IC50 [3]: > 10 µM
activity at 15 min, 25 µM ([3]; human, liver microsomes, pH 7.4, probe phenacetin, N-AS 25 µM, read-out: % of control at 25 µM): 94.6%
